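A five-concentration, 48-hour dose response in 96-well plates underlies each endpoint, interpolated linearly between surrounding concentrations. TGI denotes the concentration required for complete inhibition of growth.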
Legend:
Test in all cases: NCI anticancer screen, dose series, 48 h
[1] = system: HS 578T breast
[2] = system: T-47D breast
[3] = system: RXF 393 renal
[4] = system: K-562 leukemia
[5] = system: SNB-75 CNS
[6] = system: IGROV1 ovarian
[7] = system: SF-539 CNS
[8] = system: MALME-3M melanoma
[9] = system: SN12C renal
[10] = system: NCI-H23 lung
[11] = system: OVCAR-3 ovarian
[12] = system: TK-10 renal
[13] = system: HOP-92 NSCLC
[14] = system: SW-620 colon
[15] = system: RPMI-8226 leukemia
[16] = system: 786-0 renal
[17] = system: PC-3 prostate
[18] = system: MDA-MB-231 breast
[19] = system: DU-145 prostate
[20] = system: HCT-116 colon
[21] = system: LOX IMVI melanoma
[22] = system: KM12 colon
[23] = system: HT29 colon
[24] = system: U251 CNS
[25] = system: OVCAR-8 ovarian
[26] = system: MDA-N
[27] = system: SK-OV-3 ovarian
[28] = system: NCI-H226 lung
[29] = system: UACC-62 melanoma
[30] = system: OVCAR-4 ovarian
[31] = system: MCF7 breast
[32] = system: SNB-19 CNS
[33] = system: SR leukemia
[34] = system: NCI/ADR-RES ovarian
[35] = system: SK-MEL-2 melanoma
[36] = system: SF-295 CNS
[37] = system: SF-268 CNS
[38] = system: NCI-H522 lung
[39] = system: SK-MEL-28 melanoma
[40] = system: NCI-H460 lung
[41] = system: A549 NSCLC
[42] = system: CAKI-1 renal
[43] = system: HCT-15 colon
[44] = system: UO-31 renal
[45] = system: A498 renal
[46] = system: HL-60(TB) leukemia
[47] = system: SK-MEL-5 melanoma
[48] = system: ACHN renal
[49] = system: M14 melanoma
[50] = system: CCRF-CEM leukemia
[51] = system: HCC-2998 colon
[52] = system: HOP-62 NSCLC
[53] = system: COLO 205 colon
[54] = system: UACC-257 melanoma
[55] = system: EKVX NSCLC
[56] = system: MOLT-4 leukemia
[57] = system: OVCAR-5 ovarian
[58] = system: MDA-MB-435
[59] = system: BT-549 breast

Clc1ccc(C(SCc2ccccc2)SCc2ccccc2)cc1
TGI [1]: > 10 µM | TGI [2]: > 10 µM | TGI [3]: > 10 µM | TGI [4]: > 10 µM | TGI [5]: > 10 µM | TGI [6]: > 10 µM | TGI [7]: > 10 µM | TGI [8]: > 10 µM | TGI [9]: > 10 µM | TGI [10]: > 10 µM | TGI [11]: > 10 µM | TGI [12]: > 10 µM | TGI [13]: > 10 µM | TGI [14]: > 10 µM | TGI [15]: > 10 µM | TGI [16]: > 10 µM | TGI [17]: > 10 µM | TGI [18]: > 10 µM | TGI [19]: > 10 µM | TGI [20]: > 10 µM | TGI [21]: > 10 µM | TGI [22]: > 10 µM | TGI [23]: > 10 µM | TGI [24]: > 10 µM | TGI [25]: > 10 µM | TGI [26]: > 10 µM | TGI [27]: > 10 µM | TGI [28]: > 10 µM | TGI [29]: > 10 µM | TGI [30]: > 10 µM | TGI [31]: > 10 µM | TGI [32]: > 10 µM | TGI [33]: > 10 µM | TGI [34]: > 10 µM | TGI [35]: > 10 µM | TGI [36]: > 10 µM | TGI [37]: > 10 µM | TGI [38]: > 10 µM | TGI [39]: > 10 µM | TGI [40]: > 10 µM | TGI [41]: > 10 µM | TGI [42]: > 10 µM | TGI [43]: > 10 µM | TGI [44]: > 10 µM | TGI [45]: > 10 µM | TGI [46]: > 10 µM | TGI [47]: > 10 µM | TGI [48]: > 10 µM | TGI [49]: > 10 µM | TGI [50]: > 10 µM | TGI [51]: > 10 µM | TGI [52]: > 10 µM | TGI [53]: > 10 µM | TGI [54]: > 10 µM | TGI [55]: > 10 µM | TGI [56]: > 10 µM

O=C(O)CCC(=O)c1ccc(Cl)cc1
TGI [2]: > 100 µM | TGI [3]: > 100 µM | TGI [4]: > 100 µM | TGI [5]: > 100 µM | TGI [6]: > 100 µM | TGI [7]: > 100 µM | TGI [9]: > 100 µM | TGI [11]: > 100 µM | TGI [13]: > 100 µM | TGI [14]: > 100 µM | TGI [15]: > 100 µM | TGI [16]: > 100 µM | TGI [19]: > 100 µM | TGI [57]: > 100 µM | TGI [20]: > 100 µM | TGI [21]: > 100 µM | TGI [22]: > 100 µM | TGI [23]: > 100 µM | TGI [25]: > 100 µM | TGI [26]: > 100 µM | TGI [27]: > 100 µM | TGI [28]: > 100 µM | TGI [30]: > 100 µM | TGI [32]: > 100 µM | TGI [58]: > 100 µM | TGI [33]: > 100 µM | TGI [36]: > 100 µM | TGI [39]: > 100 µM | TGI [41]: > 100 µM | TGI [42]: > 100 µM | TGI [44]: > 100 µM | TGI [46]: > 100 µM | TGI [47]: > 100 µM | TGI [49]: > 100 µM | TGI [50]: > 100 µM | TGI [52]: > 100 µM | TGI [53]: > 100 µM | TGI [55]: > 100 µM | TGI [56]: > 100 µM

Nc1nn2c(nc(N)c3c(N)[nH]nc32)c1N=Nc1ccc(Br)cc1
TGI [1]: > 100 µM | TGI [3]: > 100 µM | TGI [4]: > 100 µM | TGI [5]: 59.9 µM | TGI [6]: > 100 µM | TGI [7]: 49.6 µM | TGI [8]: 18.4 µM | TGI [9]: 56.7 µM | TGI [10]: > 7.37 µM | TGI [11]: > 78 µM | TGI [12]: > 100 µM | TGI [13]: 28.1 µM | TGI [14]: > 100 µM | TGI [15]: > 100 µM | TGI [16]: > 95.3 µM | TGI [17]: > 100 µM | TGI [18]: 1.87 µM | TGI [19]: > 100 µM | TGI [57]: > 96.2 µM | TGI [20]: > 100 µM | TGI [21]: 22.6 µM | TGI [22]: > 75.8 µM | TGI [23]: > 100 µM | TGI [24]: 30.7 µM | TGI [25]: > 97.1 µM | TGI [26]: 9.88 µM | TGI [27]: > 100 µM | TGI [28]: > 100 µM | TGI [29]: > 100 µM | TGI [30]: > 92.6 µM | TGI [31]: > 100 µM | TGI [32]: > 92.8 µM | TGI [58]: > 27.9 µM | TGI [33]: > 100 µM | TGI [34]: > 100 µM | TGI [35]: 36.5 µM | TGI [36]: > 100 µM | TGI [37]: 36.1 µM | TGI [38]: 76.9 µM | TGI [39]: > 94.2 µM | TGI [40]: > 100 µM | TGI [41]: > 100 µM | TGI [59]: 15.5 µM | TGI [42]: > 100 µM | TGI [43]: > 100 µM | TGI [44]: > 100 µM | TGI [45]: > 100 µM | TGI [46]: 77.9 µM | TGI [47]: > 100 µM | TGI [48]: > 100 µM | TGI [49]: > 53.6 µM | TGI [50]: > 100 µM | TGI [51]: > 100 µM | TGI [52]: > 93 µM | TGI [53]: > 100 µM | TGI [54]: > 100 µM | TGI [55]: > 100 µM | TGI [56]: > 25.9 µM

CN(/N=C/c1ccnc2ccccc12)c1ccc(Cl)cc1[N+](=O)[O-]
TGI [1]: 52.2 µM | TGI [3]: > 100 µM | TGI [4]: > 100 µM | TGI [5]: > 100 µM | TGI [6]: > 100 µM | TGI [7]: > 100 µM | TGI [8]: > 100 µM | TGI [9]: > 100 µM | TGI [10]: > 100 µM | TGI [11]: > 100 µM | TGI [12]: > 100 µM | TGI [13]: > 100 µM | TGI [14]: > 100 µM | TGI [16]: > 100 µM | TGI [17]: > 100 µM | TGI [18]: > 100 µM | TGI [19]: > 100 µM | TGI [57]: > 100 µM | TGI [20]: > 100 µM | TGI [22]: > 100 µM | TGI [23]: > 100 µM | TGI [24]: > 100 µM | TGI [25]: > 100 µM | TGI [26]: > 100 µM | TGI [27]: > 100 µM | TGI [28]: > 100 µM | TGI [29]: > 100 µM | TGI [30]: 69.1 µM | TGI [31]: > 100 µM | TGI [32]: > 100 µM | TGI [58]: > 100 µM | TGI [33]: > 100 µM | TGI [34]: > 100 µM | TGI [35]: > 100 µM | TGI [36]: > 100 µM | TGI [37]: > 100 µM | TGI [38]: > 100 µM | TGI [40]: > 100 µM | TGI [41]: > 100 µM | TGI [59]: > 100 µM | TGI [42]: > 100 µM | TGI [43]: > 100 µM | TGI [44]: > 100 µM | TGI [45]: > 100 µM | TGI [46]: > 100 µM | TGI [47]: > 100 µM | TGI [48]: > 100 µM | TGI [49]: > 100 µM | TGI [50]: > 100 µM | TGI [51]: > 100 µM | TGI [52]: > 100 µM | TGI [53]: > 100 µM | TGI [54]: > 100 µM | TGI [55]: > 100 µM | TGI [56]: > 100 µM

From PubChem BioAssay (NCI)
